From PMC8159961, “Exploring protein hotspots by optimized fragment pharmacophores” (Nature Communications, 2021)

Key:
human 5-HT1A receptor = molecular target: T1, human 5-HT1A receptor (Homo sapiens, UniProt P08908); assay: GPCR radioligand binding assay, [3H]-8-OH-DPAT displacement, HEK293 membranes; conditions: for %inh 5-HT1A average: average of exp_1 and exp_2; for %inh 5-HT1A corrected*: average, values below 0 and above 100% were set as 0 and 100; for %inh 5-HT1A exp_1: replicate exp_1; for %inh 5-HT1A exp_2: replicate exp_2; for 5-HT1A % Inhibition by plate position: 10 µM
T1 construct: expressed in transfected cells
T1 sequence (P08908 1-422): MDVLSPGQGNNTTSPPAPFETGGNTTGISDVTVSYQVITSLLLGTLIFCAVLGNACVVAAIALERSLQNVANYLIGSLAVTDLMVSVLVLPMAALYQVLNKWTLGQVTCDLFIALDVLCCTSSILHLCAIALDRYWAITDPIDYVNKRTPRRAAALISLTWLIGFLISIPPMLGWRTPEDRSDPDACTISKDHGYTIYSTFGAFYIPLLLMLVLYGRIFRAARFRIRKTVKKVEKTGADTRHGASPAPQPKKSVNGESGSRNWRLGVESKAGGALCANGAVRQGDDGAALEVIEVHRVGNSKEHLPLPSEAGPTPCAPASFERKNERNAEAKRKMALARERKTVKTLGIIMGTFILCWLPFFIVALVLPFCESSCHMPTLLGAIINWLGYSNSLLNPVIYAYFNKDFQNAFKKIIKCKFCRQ

human 5-HT6 receptor = molecular target: T2, human 5-HT6 receptor (Homo sapiens, UniProt P50406); assay: GPCR radioligand binding assay, [3H]-LSD displacement, HEK293 membranes; conditions: for 5-HT6 % Inhibition by plate position: 10 µM; for %inh 5-HT6 average: average of exp_1 and exp_2; for %inh 5-HT6 corrected*: average, values below 0 and above 100% were set as 0 and 100; for %inh 5-HT6 exp_1: replicate exp_1; for %inh 5-HT6 exp_2: replicate exp_2
T2 construct: expressed in transfected cells
T2 sequence (P50406 whole entry): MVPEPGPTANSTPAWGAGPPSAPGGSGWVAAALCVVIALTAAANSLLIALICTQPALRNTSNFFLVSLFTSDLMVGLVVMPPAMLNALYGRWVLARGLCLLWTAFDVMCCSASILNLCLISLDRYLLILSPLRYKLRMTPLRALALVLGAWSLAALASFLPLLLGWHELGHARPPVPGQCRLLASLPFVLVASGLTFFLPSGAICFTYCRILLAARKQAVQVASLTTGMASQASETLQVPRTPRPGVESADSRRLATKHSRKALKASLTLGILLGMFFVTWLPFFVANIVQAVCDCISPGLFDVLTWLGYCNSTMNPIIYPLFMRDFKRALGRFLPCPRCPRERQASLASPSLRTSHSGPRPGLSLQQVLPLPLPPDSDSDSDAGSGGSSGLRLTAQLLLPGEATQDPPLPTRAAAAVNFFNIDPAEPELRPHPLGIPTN

human 5-HT7b receptor = molecular target: T3, human 5-HT7b receptor (Homo sapiens, UniProt P34969); assay: GPCR radioligand binding assay, [3H]-5-CT displacement, HEK293 membranes; conditions: for 5-HT7 % Inhibition by plate position: 10 µM; for %inh 5-HT7 exp_1: replicate exp_1; for %inh 5-HT7 exp_2: replicate exp_2; for %inh 5-HT7 average: average of exp_1 and exp_2
T3 construct: expressed in transfected cells
T3 sequence (P34969 1-432): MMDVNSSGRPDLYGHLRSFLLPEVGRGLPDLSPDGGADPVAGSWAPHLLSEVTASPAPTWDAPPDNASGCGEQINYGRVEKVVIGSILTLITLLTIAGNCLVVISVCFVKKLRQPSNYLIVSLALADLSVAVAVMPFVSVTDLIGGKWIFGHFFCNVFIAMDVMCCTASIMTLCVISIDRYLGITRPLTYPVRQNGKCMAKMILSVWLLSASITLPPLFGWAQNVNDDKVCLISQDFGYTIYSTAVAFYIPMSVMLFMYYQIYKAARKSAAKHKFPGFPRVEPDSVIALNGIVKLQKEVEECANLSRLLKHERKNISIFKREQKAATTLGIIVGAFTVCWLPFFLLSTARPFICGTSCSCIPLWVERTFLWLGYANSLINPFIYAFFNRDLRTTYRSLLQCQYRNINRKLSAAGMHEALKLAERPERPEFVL

Nc1ccc(-c2ccccc2)cc1C(=O)O [G9]
%inh 5-HT1A average (human 5-HT1A receptor): 15% | %inh 5-HT1A corrected* (human 5-HT1A receptor): 15% | %inh 5-HT1A exp_1 (human 5-HT1A receptor): 13% | %inh 5-HT1A exp_2 (human 5-HT1A receptor): 18% | 5-HT6 % Inhibition by plate position (human 5-HT6 receptor): 37% | %inh 5-HT6 average (human 5-HT6 receptor): 37% | %inh 5-HT6 corrected* (human 5-HT6 receptor): 37% | %inh 5-HT6 exp_1 (human 5-HT6 receptor): 34% | %inh 5-HT6 exp_2 (human 5-HT6 receptor): 40% | 5-HT7 % Inhibition by plate position (human 5-HT7b receptor): 15% | %inh 5-HT7 exp_1 (human 5-HT7b receptor): 16% | %inh 5-HT7 exp_2 (human 5-HT7b receptor): 14%

O=C(CN1CCCC1)c1ccccc1Cl [G10]
%inh 5-HT1A average (human 5-HT1A receptor): 78% | %inh 5-HT1A corrected* (human 5-HT1A receptor): 78% | %inh 5-HT1A exp_1 (human 5-HT1A receptor): 77% | %inh 5-HT1A exp_2 (human 5-HT1A receptor): 79% | 5-HT6 % Inhibition by plate position (human 5-HT6 receptor): 19% | %inh 5-HT6 average (human 5-HT6 receptor): 19% | %inh 5-HT6 corrected* (human 5-HT6 receptor): 19% | %inh 5-HT6 exp_1 (human 5-HT6 receptor): 17% | %inh 5-HT6 exp_2 (human 5-HT6 receptor): 20% | 5-HT7 % Inhibition by plate position (human 5-HT7b receptor): 3.47% | %inh 5-HT7 exp_1 (human 5-HT7b receptor): 8% | %inh 5-HT7 exp_2 (human 5-HT7b receptor): -1%

CCc1nccn1CC(=O)O [G11]
%inh 5-HT1A average (human 5-HT1A receptor): 8.43% | %inh 5-HT1A corrected* (human 5-HT1A receptor): 8.43% | %inh 5-HT1A exp_1 (human 5-HT1A receptor): 3.26% | %inh 5-HT1A exp_2 (human 5-HT1A receptor): 14% | 5-HT6 % Inhibition by plate position (human 5-HT6 receptor): 0% | %inh 5-HT6 average (human 5-HT6 receptor): -2% | %inh 5-HT6 corrected* (human 5-HT6 receptor): 0% | %inh 5-HT6 exp_1 (human 5-HT6 receptor): -9% | %inh 5-HT6 exp_2 (human 5-HT6 receptor): 5% | 5-HT7 % Inhibition by plate position (human 5-HT7b receptor): 0% | %inh 5-HT7 average (human 5-HT7b receptor): -3.32% | %inh 5-HT7 exp_1 (human 5-HT7b receptor): -14% | %inh 5-HT7 exp_2 (human 5-HT7b receptor): 8%

O=C(O)c1ccc(CN2CCOCC2)cc1 [H1]
%inh 5-HT1A average (human 5-HT1A receptor): 5% | %inh 5-HT1A corrected* (human 5-HT1A receptor): 5% | %inh 5-HT1A exp_1 (human 5-HT1A receptor): 11% | %inh 5-HT1A exp_2 (human 5-HT1A receptor): -0.56% | 5-HT6 % Inhibition by plate position (human 5-HT6 receptor): 44% | %inh 5-HT6 average (human 5-HT6 receptor): 44% | %inh 5-HT6 corrected* (human 5-HT6 receptor): 44% | %inh 5-HT6 exp_1 (human 5-HT6 receptor): 48% | %inh 5-HT6 exp_2 (human 5-HT6 receptor): 41% | 5-HT7 % Inhibition by plate position (human 5-HT7b receptor): 17% | %inh 5-HT7 exp_1 (human 5-HT7b receptor): 11% | %inh 5-HT7 exp_2 (human 5-HT7b receptor): 23%

O=C(O)CC1CCC(=O)N1 (centres unmarked) [H2]
5-HT1A % Inhibition by plate position (human 5-HT1A receptor): 0% | %inh 5-HT1A average (human 5-HT1A receptor): -0.447% | %inh 5-HT1A exp_1 (human 5-HT1A receptor): -9% | %inh 5-HT1A exp_2 (human 5-HT1A receptor): 8.47% | 5-HT6 % Inhibition by plate position (human 5-HT6 receptor): 16% | %inh 5-HT6 average (human 5-HT6 receptor): 16% | %inh 5-HT6 corrected* (human 5-HT6 receptor): 16% | %inh 5-HT6 exp_1 (human 5-HT6 receptor): 18% | %inh 5-HT6 exp_2 (human 5-HT6 receptor): 15% | 5-HT7 % Inhibition by plate position (human 5-HT7b receptor): 7% | %inh 5-HT7 exp_1 (human 5-HT7b receptor): 4.76% | %inh 5-HT7 exp_2 (human 5-HT7b receptor): 9%

FC1(F)CNCC(F)(F)O1 [H3]
5-HT1A % Inhibition by plate position (human 5-HT1A receptor): 0% | %inh 5-HT1A average (human 5-HT1A receptor): -7% | %inh 5-HT1A exp_1 (human 5-HT1A receptor): 9% | %inh 5-HT1A exp_2 (human 5-HT1A receptor): -23% | 5-HT6 % Inhibition by plate position (human 5-HT6 receptor): 36% | %inh 5-HT6 average (human 5-HT6 receptor): 36% | %inh 5-HT6 corrected* (human 5-HT6 receptor): 36% | %inh 5-HT6 exp_1 (human 5-HT6 receptor): 40% | %inh 5-HT6 exp_2 (human 5-HT6 receptor): 31% | 5-HT7 % Inhibition by plate position (human 5-HT7b receptor): 0% | %inh 5-HT7 average (human 5-HT7b receptor): -7% | %inh 5-HT7 exp_1 (human 5-HT7b receptor): -4% | %inh 5-HT7 exp_2 (human 5-HT7b receptor): -10%

Fc1ccc2c(C3CCNCC3)c[nH]c2c1 [H4]
%inh 5-HT1A average (human 5-HT1A receptor): 81% | %inh 5-HT1A corrected* (human 5-HT1A receptor): 81% | %inh 5-HT1A exp_1 (human 5-HT1A receptor): 87% | %inh 5-HT1A exp_2 (human 5-HT1A receptor): 75% | 5-HT6 % Inhibition by plate position (human 5-HT6 receptor): 90% | %inh 5-HT6 average (human 5-HT6 receptor): 90% | %inh 5-HT6 corrected* (human 5-HT6 receptor): 90% | %inh 5-HT6 exp_1 (human 5-HT6 receptor): 81% | %inh 5-HT6 exp_2 (human 5-HT6 receptor): 98% | 5-HT7 % Inhibition by plate position (human 5-HT7b receptor): 78% | %inh 5-HT7 exp_1 (human 5-HT7b receptor): 78% | %inh 5-HT7 exp_2 (human 5-HT7b receptor): 78%

Oc1ccc(-n2cncn2)cc1 [H5]
5-HT1A % Inhibition by plate position (human 5-HT1A receptor): 0% | %inh 5-HT1A average (human 5-HT1A receptor): -1.29% | %inh 5-HT1A exp_1 (human 5-HT1A receptor): -9% | %inh 5-HT1A exp_2 (human 5-HT1A receptor): 6% | 5-HT6 % Inhibition by plate position (human 5-HT6 receptor): 36% | %inh 5-HT6 average (human 5-HT6 receptor): 36% | %inh 5-HT6 corrected* (human 5-HT6 receptor): 36% | %inh 5-HT6 exp_1 (human 5-HT6 receptor): 39% | %inh 5-HT6 exp_2 (human 5-HT6 receptor): 32% | 5-HT7 % Inhibition by plate position (human 5-HT7b receptor): 25% | %inh 5-HT7 exp_1 (human 5-HT7b receptor): 29% | %inh 5-HT7 exp_2 (human 5-HT7b receptor): 21%

Cn1nc(C(F)(F)F)cc1O [H6]
%inh 5-HT1A average (human 5-HT1A receptor): 21% | %inh 5-HT1A corrected* (human 5-HT1A receptor): 21% | %inh 5-HT1A exp_1 (human 5-HT1A receptor): 21% | %inh 5-HT1A exp_2 (human 5-HT1A receptor): 21% | 5-HT6 % Inhibition by plate position (human 5-HT6 receptor): 0% | %inh 5-HT6 average (human 5-HT6 receptor): -24% | %inh 5-HT6 corrected* (human 5-HT6 receptor): 0% | %inh 5-HT6 exp_1 (human 5-HT6 receptor): -16% | %inh 5-HT6 exp_2 (human 5-HT6 receptor): -31% | 5-HT7 % Inhibition by plate position (human 5-HT7b receptor): 9% | %inh 5-HT7 exp_1 (human 5-HT7b receptor): 4% | %inh 5-HT7 exp_2 (human 5-HT7b receptor): 14%

O=C1CCC(=O)N(c2ccccc2)N1 [H7]
%inh 5-HT1A average (human 5-HT1A receptor): 6% | %inh 5-HT1A corrected* (human 5-HT1A receptor): 6% | %inh 5-HT1A exp_1 (human 5-HT1A receptor): 7% | %inh 5-HT1A exp_2 (human 5-HT1A receptor): 5.53% | 5-HT6 % Inhibition by plate position (human 5-HT6 receptor): 22% | %inh 5-HT6 average (human 5-HT6 receptor): 22% | %inh 5-HT6 corrected* (human 5-HT6 receptor): 22% | %inh 5-HT6 exp_1 (human 5-HT6 receptor): 24% | %inh 5-HT6 exp_2 (human 5-HT6 receptor): 20% | 5-HT7 % Inhibition by plate position (human 5-HT7b receptor): 24% | %inh 5-HT7 exp_1 (human 5-HT7b receptor): 27% | %inh 5-HT7 exp_2 (human 5-HT7b receptor): 21%

O=C1CC(CSc2ccc(Cl)cc2)=NN1 [H8]
5-HT1A % Inhibition by plate position (human 5-HT1A receptor): 0% | %inh 5-HT1A average (human 5-HT1A receptor): -0.353% | %inh 5-HT1A exp_1 (human 5-HT1A receptor): -4% | %inh 5-HT1A exp_2 (human 5-HT1A receptor): 3.38% | 5-HT6 % Inhibition by plate position (human 5-HT6 receptor): 12% | %inh 5-HT6 average (human 5-HT6 receptor): 12% | %inh 5-HT6 corrected* (human 5-HT6 receptor): 12% | %inh 5-HT6 exp_1 (human 5-HT6 receptor): 9% | %inh 5-HT6 exp_2 (human 5-HT6 receptor): 14% | 5-HT7 % Inhibition by plate position (human 5-HT7b receptor): 0% | %inh 5-HT7 average (human 5-HT7b receptor): -7% | %inh 5-HT7 exp_1 (human 5-HT7b receptor): -1% | %inh 5-HT7 exp_2 (human 5-HT7b receptor): -14%

O=C(c1ccccc1)N1CCC(CO)CC1 [H9]
%inh 5-HT1A average (human 5-HT1A receptor): 11% | %inh 5-HT1A corrected* (human 5-HT1A receptor): 11% | %inh 5-HT1A exp_1 (human 5-HT1A receptor): 15% | %inh 5-HT1A exp_2 (human 5-HT1A receptor): 7% | 5-HT6 % Inhibition by plate position (human 5-HT6 receptor): 32% | %inh 5-HT6 average (human 5-HT6 receptor): 32% | %inh 5-HT6 corrected* (human 5-HT6 receptor): 32% | %inh 5-HT6 exp_1 (human 5-HT6 receptor): 29% | %inh 5-HT6 exp_2 (human 5-HT6 receptor): 36% | 5-HT7 % Inhibition by plate position (human 5-HT7b receptor): 12% | %inh 5-HT7 exp_1 (human 5-HT7b receptor): 11% | %inh 5-HT7 exp_2 (human 5-HT7b receptor): 13%

O=C1CSC(Nc2ccc(F)cc2)=N1 [H10]
%inh 5-HT1A average (human 5-HT1A receptor): 12% | %inh 5-HT1A corrected* (human 5-HT1A receptor): 12% | %inh 5-HT1A exp_1 (human 5-HT1A receptor): 10% | %inh 5-HT1A exp_2 (human 5-HT1A receptor): 15% | 5-HT6 % Inhibition by plate position (human 5-HT6 receptor): 36% | %inh 5-HT6 average (human 5-HT6 receptor): 36% | %inh 5-HT6 corrected* (human 5-HT6 receptor): 36% | %inh 5-HT6 exp_1 (human 5-HT6 receptor): 37% | %inh 5-HT6 exp_2 (human 5-HT6 receptor): 35% | 5-HT7 % Inhibition by plate position (human 5-HT7b receptor): 0% | %inh 5-HT7 average (human 5-HT7b receptor): -3.55% | %inh 5-HT7 exp_1 (human 5-HT7b receptor): 3.25% | %inh 5-HT7 exp_2 (human 5-HT7b receptor): -10%

Cc1ccc(CCNc2ccccc2)cn1 [H11]
%inh 5-HT1A average (human 5-HT1A receptor): 5% | %inh 5-HT1A corrected* (human 5-HT1A receptor): 5% | %inh 5-HT1A exp_1 (human 5-HT1A receptor): 11% | %inh 5-HT1A exp_2 (human 5-HT1A receptor): -0.501% | 5-HT6 % Inhibition by plate position (human 5-HT6 receptor): 0% | %inh 5-HT6 average (human 5-HT6 receptor): -0.844% | %inh 5-HT6 corrected* (human 5-HT6 receptor): 0% | %inh 5-HT6 exp_1 (human 5-HT6 receptor): 7% | %inh 5-HT6 exp_2 (human 5-HT6 receptor): -9% | 5-HT7 % Inhibition by plate position (human 5-HT7b receptor): 0% | %inh 5-HT7 average (human 5-HT7b receptor): -0.222% | %inh 5-HT7 exp_1 (human 5-HT7b receptor): -13% | %inh 5-HT7 exp_2 (human 5-HT7b receptor): 12%
